Measured values published in ChEMBL document CHEMBL2086272, “Anticlastogenic effect in human lymphocytes by the sodium salt of 3,4-secoisopimar-4(18),7,15-trien-3-oic acid” (J Nat Prod, 2012).
The source made the active and inactive calls. No cut-off for these calls is given here.

Legend:
[1] = tested on: PBL; assay: Cytotoxicity in human PBL assessed as nuclear division index at 0.054 uM co-treated with colcemid (reference value: 1.65 +/- 0.06 nuclear division index); format: cell-based
[2] = tested on: PBL; assay: Cytotoxicity in human PBL assessed as nuclear division index at 330 uM treated after treatment with colcemid (reference value: 1.59 +/- 0.08 nuclear division index); format: cell-based
[3] = tested on: PBL; assay: Cytotoxicity in human PBL assessed as nuclear division index at 33 uM treated after treatment with ethyl methanesulfonate (reference value: 1.59 +/- 0.08 nuclear division index); format: cell-based
[4] = tested on: PBL; assay: Genotoxicity in human PBL assessed as micronucleus frequency at 0.3 to 330 uM; format: toxicity, cell-based
[5] = tested on: PBL; assay: (§1) Antimutagenic activity in human PBL assessed as inhibition of ethyl methanesulfonate-induced frequency of micronucleus per 1000 binucleated lymphocyte cells at 330 uM treated after treatment with ethyl methanesulfonate by cytokinesis blocking technique (reference value: 3.33 +/- 0.33 micronucleus frequency/1000 binucleated lymphocyte cells); format: functional
[6] = tested on: PBL; assay: Cytotoxicity in human PBL assessed as nuclear division index at 0.3 uM treated after treatment with ethyl methanesulfonate (reference value: 1.59 +/- 0.08 nuclear division index); format: cell-based
[7] = tested on: PBL; assay: Cytotoxicity in human PBL assessed as nuclear division index at 3.3 uM treated after treatment with colcemid (reference value: 1.59 +/- 0.08 nuclear division index); format: cell-based
[8] = tested on: PBL; assay: Cytotoxicity in human PBL assessed as nuclear division index at 330 uM pretreated before ethyl methanesulfonate (reference value: 1.63 +/- 0.11 nuclear division index); format: cell-based
[9] = tested on: PBL; assay: Cytotoxicity in human PBL assessed as nuclear division index at 33 uM pretreated before ethyl methanesulfonate (reference value: 1.63 +/- 0.11 nuclear division index); format: cell-based
[10] = tested on: PBL; assay: as §1, with “3.3” for “330”, “pretreated before” for “treated after treatment with”, “0.88” for “0.33”; format: functional
[11] = tested on: PBL; assay: Cytotoxicity in human PBL assessed as nuclear division index at 0.3 uM pretreated before colcemid (reference value: 1.63 +/- 0.11 nuclear division index); format: cell-based
[12] = tested on: PBL; assay: Cytotoxicity in human PBL assessed as nuclear division index at 33 uM pretreated before colcemid (reference value: 1.63 +/- 0.11 nuclear division index); format: cell-based
[13] = tested on: PBL; assay: as §1, with “0.3” for “330”; format: functional
[14] = tested on: PBL; assay: as §1, with “1930” for “330”; format: functional
[15] = tested on: PBL; assay: Cytotoxicity in human PBL assessed as nuclear division index at 0.3 to 330 uM; format: cell-based
[16] = tested on: PBL; assay: as §1, with “33” for “330”, “co-treated” for “treated after treatment”, “4.00” for “3.33”, “0.41” for “0.33”; format: functional
[17] = tested on: PBL; assay: Cytotoxicity in human PBL assessed as nuclear division index at 1930 uM treated after treatment with ethyl methanesulfonate (reference value: 1.59 +/- 0.08 nuclear division index); format: cell-based
[18] = tested on: PBL; assay: (§2) Antimutagenic activity in human PBL assessed as inhibition of colcemid-induced frequency of micronucleus per 1000 binucleated lymphocyte cells at 3.3 uM pretreated before colcemid by cytokinesis blocking technique (reference value: 3.33 +/- 0.88 micronucleus frequency/1000 binucleated lymphocyte cells); format: functional
[19] = tested on: PBL; assay: (§3) Antimutagenic activity in human PBL assessed as inhibition of colcemid-induced frequency of micronucleus per 1000 binucleated lymphocyte cells at 33 uM co-treated with colcemid by cytokinesis blocking technique (reference value: 4.00 +/- 0.41 micronucleus frequency/1000 binucleated lymphocyte cells); format: functional
[20] = tested on: PBL; assay: Cytotoxicity in human PBL assessed as nuclear division index at 330 uM co-treated with colcemid (reference value: 1.65 +/- 0.06 nuclear division index); format: cell-based
[21] = tested on: PBL; assay: Cytotoxicity in human PBL assessed as nuclear division index at 33 uM co-treated with colcemid (reference value: 1.65 +/- 0.06 nuclear division index); format: cell-based
[22] = tested on: PBL; assay: as §2, with “at 33” for “at 3.3”; format: functional
[23] = tested on: PBL; assay: Cytotoxicity in human PBL assessed as nuclear division index at 33 uM treated after treatment with colcemid (reference value: 1.59 +/- 0.08 nuclear division index); format: cell-based
[24] = tested on: PBL; assay: as §3, with “0.054” for “33”; format: functional
[25] = tested on: PBL; assay: as §2, with “of ethyl methanesulfonate-induced” for “of colcemid-induced”, “at 33” for “at 3.3”, “before ethyl methanesulfonate” for “before colcemid”; format: functional
[26] = tested on: PBL; assay: as §1, with “colcemid-induced” for “ethyl methanesulfonate-induced”, “33” for “330”, “colcemid” for “ethyl methanesulfonate”; format: functional
[27] = tested on: PBL; assay: as §1, with “3.3” for “330”; format: functional
[28] = tested on: PBL; assay: Cytotoxicity in human PBL assessed as nuclear division index at 3.3 uM pretreated before colcemid (reference value: 1.63 +/- 0.11 nuclear division index); format: cell-based
[29] = tested on: PBL; assay: Cytotoxicity in human PBL assessed as nuclear division index at 0.3 uM treated after treatment with colcemid (reference value: 1.59 +/- 0.08 nuclear division index); format: cell-based
[30] = tested on: PBL; assay: as §3, with “330” for “33”; format: functional
[31] = tested on: PBL; assay: as §3, with “ethyl methanesulfonate-induced” for “colcemid-induced”, “3.3” for “33”, “ethyl methanesulfonate” for “colcemid”; format: functional
[32] = tested on: PBL; assay: Cytotoxicity in human PBL assessed as nuclear division index at 0.3 uM pretreated before ethyl methanesulfonate (reference value: 1.63 +/- 0.11 nuclear division index); format: cell-based
[33] = tested on: PBL; assay: as §2, with “at 0.3” for “at 3.3”; format: functional
[34] = tested on: PBL; assay: Cytotoxicity in human PBL assessed as nuclear division index at 0.054 uM pretreated before colcemid (reference value: 1.63 +/- 0.11 nuclear division index); format: cell-based
[35] = tested on: PBL; assay: Cytotoxicity in human PBL assessed as nuclear division index at 1930 uM pretreated before ethyl methanesulfonate (reference value: 1.63 +/- 0.11 nuclear division index); format: cell-based
[36] = tested on: PBL; assay: as §3, with “ethyl methanesulfonate-induced” for “colcemid-induced”, “330” for “33”, “ethyl methanesulfonate” for “colcemid”; format: functional
[37] = tested on: PBL; assay: Cytotoxicity in human PBL assessed as nuclear division index at 0.054 uM treated after treatment with colcemid (reference value: 1.59 +/- 0.08 nuclear division index); format: cell-based
[38] = tested on: PBL; assay: Cytotoxicity in human PBL assessed as nuclear division index at 33 uM co-treated with ethyl methanesulfonate (reference value: 1.65 +/- 0.06 nuclear division index); format: cell-based
[39] = tested on: PBL; assay: Cytotoxicity in human PBL assessed as nuclear division index at 3.3 uM treated after treatment with ethyl methanesulfonate (reference value: 1.59 +/- 0.08 nuclear division index); format: cell-based
[40] = tested on: PBL; assay: as §3, with “ethyl methanesulfonate-induced” for “colcemid-induced”, “1930” for “33”, “ethyl methanesulfonate” for “colcemid”; format: functional
[41] = tested on: PBL; assay: as §3, with “3.3” for “33”; format: functional
[42] = tested on: PBL; assay: as §2, with “of ethyl methanesulfonate-induced” for “of colcemid-induced”, “at 1930” for “at 3.3”, “before ethyl methanesulfonate” for “before colcemid”; format: functional
[43] = tested on: PBL; assay: as §2, with “at 330” for “at 3.3”; format: functional, cell-based
[44] = tested on: PBL; assay: Cytotoxicity in human PBL assessed as nuclear division index at 330 uM pretreated before colcemid (reference value: 1.63 +/- 0.11 nuclear division index); format: cell-based
[45] = tested on: PBL; assay: Cytotoxicity in human PBL assessed as nuclear division index at 330 uM treated after treatment with ethyl methanesulfonate (reference value: 1.59 +/- 0.08 nuclear division index); format: cell-based
[46] = tested on: PBL; assay: Cytotoxicity in human PBL assessed as nuclear division index at 0.3 uM co-treated with ethyl methanesulfonate (reference value: 1.65 +/- 0.06 nuclear division index); format: cell-based
[47] = tested on: PBL; assay: Cytotoxicity in human PBL assessed as nuclear division index at 330 uM co-treated with ethyl methanesulfonate (reference value: 1.65 +/- 0.06 nuclear division index); format: cell-based
[48] = tested on: PBL; assay: Cytotoxicity in human PBL assessed as nuclear division index at 0.3 uM co-treated with colcemid (reference value: 1.65 +/- 0.06 nuclear division index); format: cell-based
[49] = tested on: PBL; assay: as §1, with “33” for “330”; format: functional
[50] = tested on: PBL; assay: Cytotoxicity in human PBL assessed as nuclear division index at 3.3 uM co-treated with colcemid (reference value: 1.65 +/- 0.06 nuclear division index); format: cell-based
[51] = tested on: PBL; assay: as §3, with “ethyl methanesulfonate-induced” for “colcemid-induced”, “0.3” for “33”, “ethyl methanesulfonate” for “colcemid”; format: functional
[52] = tested on: PBL; assay: as §2, with “of ethyl methanesulfonate-induced” for “of colcemid-induced”, “at 330” for “at 3.3”, “before ethyl methanesulfonate” for “before colcemid”; format: functional
[53] = tested on: PBL; assay: Cytotoxicity in human PBL assessed as nuclear division index at 3.3 uM pretreated before ethyl methanesulfonate (reference value: 1.63 +/- 0.11 nuclear division index); format: cell-based
[54] = tested on: PBL; assay: as §1, with “colcemid-induced” for “ethyl methanesulfonate-induced”, “0.054” for “330”, “colcemid” for “ethyl methanesulfonate”; format: functional
[55] = tested on: PBL; assay: as §1, with “colcemid-induced” for “ethyl methanesulfonate-induced”, “3.3” for “330”, “colcemid” for “ethyl methanesulfonate”; format: functional
[56] = tested on: PBL; assay: as §2, with “at 0.054” for “at 3.3”; format: functional
[57] = tested on: PBL; assay: as §1, with “colcemid-induced” for “ethyl methanesulfonate-induced”, “0.3” for “330”, “colcemid” for “ethyl methanesulfonate”; format: functional
[58] = tested on: PBL; assay: Cytotoxicity in human PBL assessed as nuclear division index at 1930 uM co-treated with ethyl methanesulfonate (reference value: 1.65 +/- 0.06 nuclear division index); format: cell-based
[59] = tested on: PBL; assay: as §2, with “of ethyl methanesulfonate-induced” for “of colcemid-induced”, “at 0.3” for “at 3.3”, “before ethyl methanesulfonate” for “before colcemid”; format: functional
[60] = tested on: PBL; assay: Cytotoxicity in human PBL assessed as nuclear division index at 3.3 uM co-treated with ethyl methanesulfonate (reference value: 1.65 +/- 0.06 nuclear division index); format: cell-based
[61] = tested on: PBL; assay: as §1, with “colcemid-induced” for “ethyl methanesulfonate-induced”, “colcemid” for “ethyl methanesulfonate”; format: functional
[62] = tested on: PBL; assay: as §3, with “0.3” for “33”; format: functional

SMILES: C=C[C@@]1(C)CC[C@H]2C(=CC[C@@H](C(=C)C)[C@]2(C)CCC(=O)[O-])C1.[Na+]
- Activity [1]: 1.39
- Activity [2]: 1.56
- Activity [3]: 1.36
- Activity [4]: Non-toxic
- Activity [5]: 20
- Activity [6]: 1.43
- Activity [7]: 1.58
- Activity [8]: 1.28
- Activity [9]: 1.42
- Activity [10]: 5.75
- Activity [11]: 1.44
- Activity [12]: 1.31
- Activity [13]: 19.25
- Activity [14]: 20.14
- Activity [15]: Non-toxic
- Activity [16]: 5.5
- Activity [17]: 1.41
- Activity [18]: 18.42
- Activity [19]: 21
- Activity [20]: 1.41
- Activity [21]: 1.51
- Activity [22]: 18
- Activity [23]: 1.56
- Activity [24]: 24.78
- Activity [25]: 3.75
- Activity [26]: 11.75
- Activity [27]: 19.75
- Activity [28]: 1.28
- Activity [29]: 1.59
- Activity [30]: 20.25
- Activity [31]: 6.75
- Activity [32]: 1.46
- Activity [33]: 19.25
- Activity [34]: 1.52
- Activity [35]: 1.53
- Activity [36]: 4.5
- Activity [37]: 1.65
- Activity [38]: 1.53
- Activity [39]: 1.36
- Activity [40]: 15.8
- Activity [41]: 21.25
- Activity [42]: 14
- Activity [43]: inactive
- Activity [44]: 1.03
- Activity [45]: 1.31
- Activity [46]: 1.38
- Activity [47]: 1.63
- Activity [48]: 1.37
- Activity [49]: 19.5
- Activity [50]: 1.42
- Activity [51]: 4
- Activity [52]: 4
- Activity [53]: 1.49
- Activity [54]: 12.25
- Activity [55]: 12.25
- Activity [56]: 22.75
- Activity [57]: 11.25
- Activity [58]: 1.55
- Activity [59]: 5.5
- Activity [60]: 1.58
- Activity [61]: 12.5
- Activity [62]: 21.5
